In one test the target is T1, Recombinant TYK2 (Homo sapiens, UniProt P29597).
T1 construct: purchased Carna Biosciences
Put plainly: JAK biochemical assay (LANCE Ultra TR-FRET), TYK2. The settings on record: recombinant TYK2, TR-FRET; read-out: Biochemical Assay (μM) TYK2. The method, boiled down:
(§1)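 TR-FRET read-out of ULight substrate phosphorylation by recombinant kinase gives % inhibition relative to vehicle. The assay buffer is HEPES pH 7.5 with EGTA, MgCl2, DTT and Tween-20.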
For orientation: In TR-FRET formats the signal depends on donor and acceptor labels being close together.

The test system of test [1] is STAT5 phosphorylation by IL-2 in HT-2 cells. Put plainly: STAT5 phosphorylation by IL-2 in HT-2 cells (HTRF). It counts as cell-based. An outline of the steps: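 Readout is HTRF detection of phospho-STAT5 in lysates, corrected for signal from unstimulated cells. Before lysis, HT-2 cells starved in 10% FBS medium received compound for 30 min (0.2% DMSO final, 37 °C), followed by 50 U/ml recombinant human IL-2 for 20 min.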

Test [2] relates to IFN-γ production in NK 92 cells by IL-12. Put plainly: IFN-γ production in NK 92 cells by IL-12 (ELISA). The note with it: NK92, IFN-γ secretion, read-out: Cell Based Assay (μM) NK-92/IL-2/IFN-γ.
In a further test the target is T2, Recombinant JAK2 (Homo sapiens, UniProt O60674).
T2 construct: purchased Carna Biosciences
T2 sequence (O60674 whole entry): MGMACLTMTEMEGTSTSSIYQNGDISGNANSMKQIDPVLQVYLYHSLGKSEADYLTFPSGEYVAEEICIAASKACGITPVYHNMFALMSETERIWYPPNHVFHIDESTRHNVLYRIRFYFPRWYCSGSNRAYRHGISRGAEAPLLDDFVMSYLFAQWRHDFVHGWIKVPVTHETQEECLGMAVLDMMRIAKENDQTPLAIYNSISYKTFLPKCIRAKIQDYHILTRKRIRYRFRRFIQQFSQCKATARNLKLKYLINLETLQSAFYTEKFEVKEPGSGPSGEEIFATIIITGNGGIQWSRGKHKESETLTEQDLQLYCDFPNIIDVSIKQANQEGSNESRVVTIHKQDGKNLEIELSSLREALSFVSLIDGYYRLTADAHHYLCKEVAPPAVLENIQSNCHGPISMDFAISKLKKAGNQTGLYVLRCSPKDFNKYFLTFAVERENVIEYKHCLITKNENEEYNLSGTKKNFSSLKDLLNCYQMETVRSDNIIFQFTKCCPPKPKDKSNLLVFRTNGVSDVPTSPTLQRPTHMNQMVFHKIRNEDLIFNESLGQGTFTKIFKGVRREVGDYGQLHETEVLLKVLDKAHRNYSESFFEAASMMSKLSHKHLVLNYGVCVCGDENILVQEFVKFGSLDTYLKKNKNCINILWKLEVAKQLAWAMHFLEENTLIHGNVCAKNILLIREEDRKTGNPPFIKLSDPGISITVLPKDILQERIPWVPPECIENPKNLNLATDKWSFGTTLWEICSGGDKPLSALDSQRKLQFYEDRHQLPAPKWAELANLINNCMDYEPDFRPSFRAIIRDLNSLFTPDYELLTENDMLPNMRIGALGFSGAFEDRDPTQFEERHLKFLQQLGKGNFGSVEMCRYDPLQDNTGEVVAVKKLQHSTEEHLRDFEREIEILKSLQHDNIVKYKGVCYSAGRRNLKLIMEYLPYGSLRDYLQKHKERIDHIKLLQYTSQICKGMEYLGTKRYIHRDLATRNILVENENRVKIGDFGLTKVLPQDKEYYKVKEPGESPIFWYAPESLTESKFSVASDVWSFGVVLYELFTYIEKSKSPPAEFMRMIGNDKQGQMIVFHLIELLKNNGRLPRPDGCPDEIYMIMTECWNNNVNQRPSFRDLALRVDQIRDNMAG
Put plainly: JAK biochemical assay (LANCE Ultra TR-FRET), JAK2. The note with it: recombinant JAK2, TR-FRET; read-out: Biochemical Assay (μM) JAK2. An outline of the steps:
as §1

The target of another test is T3, Recombinant JAK1 (Homo sapiens, UniProt P23458).
T3 construct: purchased Carna Biosciences
T3 sequence (P23458 whole entry): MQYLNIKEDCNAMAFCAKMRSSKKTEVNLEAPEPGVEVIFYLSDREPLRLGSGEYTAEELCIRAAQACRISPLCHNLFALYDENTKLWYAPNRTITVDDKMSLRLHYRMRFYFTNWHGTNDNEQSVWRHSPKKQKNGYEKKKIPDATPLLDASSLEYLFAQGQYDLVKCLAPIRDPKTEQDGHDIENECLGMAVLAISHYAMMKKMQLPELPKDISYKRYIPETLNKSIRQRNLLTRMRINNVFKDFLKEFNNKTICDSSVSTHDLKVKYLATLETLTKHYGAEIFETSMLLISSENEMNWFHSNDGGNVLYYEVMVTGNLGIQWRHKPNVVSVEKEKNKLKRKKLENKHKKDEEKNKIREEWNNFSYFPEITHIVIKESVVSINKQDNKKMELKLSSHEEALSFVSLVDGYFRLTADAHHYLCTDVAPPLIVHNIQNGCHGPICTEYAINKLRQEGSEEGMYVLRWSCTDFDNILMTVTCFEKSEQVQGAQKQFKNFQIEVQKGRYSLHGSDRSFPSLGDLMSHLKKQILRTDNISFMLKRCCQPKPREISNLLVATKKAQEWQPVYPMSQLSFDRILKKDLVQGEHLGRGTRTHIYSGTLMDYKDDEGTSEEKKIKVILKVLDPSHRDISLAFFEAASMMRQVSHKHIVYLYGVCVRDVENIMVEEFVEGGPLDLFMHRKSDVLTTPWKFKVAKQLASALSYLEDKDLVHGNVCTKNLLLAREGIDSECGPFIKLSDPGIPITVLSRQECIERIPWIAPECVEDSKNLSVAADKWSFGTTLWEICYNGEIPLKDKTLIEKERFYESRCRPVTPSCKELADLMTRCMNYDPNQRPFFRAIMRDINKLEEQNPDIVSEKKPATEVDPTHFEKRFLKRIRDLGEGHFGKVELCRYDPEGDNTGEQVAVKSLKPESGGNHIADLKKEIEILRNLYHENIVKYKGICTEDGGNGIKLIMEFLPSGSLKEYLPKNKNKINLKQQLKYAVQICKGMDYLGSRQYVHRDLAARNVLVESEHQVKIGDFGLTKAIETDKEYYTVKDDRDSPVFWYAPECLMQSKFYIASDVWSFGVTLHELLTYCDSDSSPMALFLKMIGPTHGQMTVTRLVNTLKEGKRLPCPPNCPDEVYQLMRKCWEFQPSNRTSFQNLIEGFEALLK
Nature of the test: JAK biochemical assay (LANCE Ultra TR-FRET), JAK1. The note with it: recombinant JAK1, TR-FRET; read-out: Biochemical Assay (μM) JAK1. An outline of the steps:
as §1

The test system of test [3] is STAT3 phosphorylation by IL-6 in TF-1 cells. Nature of the test: JAK cellular assay: STAT3 phosphorylation by IL-6 in TF-1 cells (HTRF). The test is classed as cell-based. The note with it: Homo sapiens. An outline of the steps:
(§2)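 Phospho-STAT3 (IL-6, 30 ng/ml) and phospho-STAT5 (GMCSF, 5 ng/ml) read by HTRF in lysates after 20 min cytokine exposure, minus unstimulated-cell background. Cells were serum-starved overnight, plated at 120,000/well, given compound 30 min at 37 °C beforehand; DMSO 0.2% final.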

In another test the target is T4, Recombinant JAK3 (Homo sapiens, UniProt P52333).
T4 construct: purchased Carna Biosciences
T4 sequence (P52333 1-1124): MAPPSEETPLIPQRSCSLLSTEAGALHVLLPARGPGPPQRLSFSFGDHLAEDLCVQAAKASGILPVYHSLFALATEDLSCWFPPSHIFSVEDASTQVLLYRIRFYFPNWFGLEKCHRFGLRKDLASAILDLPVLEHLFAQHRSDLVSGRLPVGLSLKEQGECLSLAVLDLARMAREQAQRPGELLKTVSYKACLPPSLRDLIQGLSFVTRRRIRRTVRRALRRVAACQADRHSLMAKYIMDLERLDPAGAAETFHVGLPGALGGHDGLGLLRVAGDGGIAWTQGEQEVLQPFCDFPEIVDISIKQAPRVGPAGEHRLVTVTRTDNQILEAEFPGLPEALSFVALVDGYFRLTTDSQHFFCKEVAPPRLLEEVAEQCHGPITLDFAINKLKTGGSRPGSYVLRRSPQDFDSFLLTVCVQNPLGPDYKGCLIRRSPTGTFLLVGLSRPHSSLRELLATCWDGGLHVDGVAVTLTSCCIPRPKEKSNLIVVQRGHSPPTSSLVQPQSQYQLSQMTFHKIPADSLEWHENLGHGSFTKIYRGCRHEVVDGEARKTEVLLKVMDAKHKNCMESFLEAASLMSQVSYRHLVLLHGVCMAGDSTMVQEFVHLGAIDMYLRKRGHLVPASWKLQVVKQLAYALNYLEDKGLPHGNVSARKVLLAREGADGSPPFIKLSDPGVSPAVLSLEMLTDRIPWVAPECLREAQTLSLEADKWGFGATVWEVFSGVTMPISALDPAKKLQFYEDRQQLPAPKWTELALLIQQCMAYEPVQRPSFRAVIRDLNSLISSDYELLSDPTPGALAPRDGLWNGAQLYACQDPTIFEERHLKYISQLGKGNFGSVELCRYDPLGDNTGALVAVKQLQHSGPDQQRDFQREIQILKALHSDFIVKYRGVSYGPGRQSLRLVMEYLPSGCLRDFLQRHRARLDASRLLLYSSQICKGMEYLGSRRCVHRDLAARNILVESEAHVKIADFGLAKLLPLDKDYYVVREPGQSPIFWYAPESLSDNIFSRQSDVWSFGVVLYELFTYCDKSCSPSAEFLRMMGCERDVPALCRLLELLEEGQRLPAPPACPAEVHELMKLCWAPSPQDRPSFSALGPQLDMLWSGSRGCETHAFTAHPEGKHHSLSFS
Put plainly: JAK biochemical assay (LANCE Ultra TR-FRET), JAK3. The settings on record: recombinant JAK3, TR-FRET; read-out: Biochemical Assay (μM) JAK3. The method, boiled down: as §1

The subject of test [4] is STAT5 phosphorylation by GMCSF in TF-1 cells. Nature of the test: JAK cellular assay: STAT5 phosphorylation by GMCSF in TF-1 cells (HTRF). The settings on record: Homo sapiens. It counts as cell-based. The method, boiled down: as §2
Test [5] has as its system IFN-γ production in NK 92 cells by IL-12. Nature of the test: IFN-γ production in NK 92 cells by IL-12 (ELISA). The note with it: NK92, IFN-γ detection from cell supernatants, read-out: Cell based IC50 (μM) NK-92/IL-12*. The method, then:
NK 92 cells were cultured in medium without IL-2 for overnight. Next day, 5000 cells per well NK 92 cells were seeded in a 96 well plate. Compounds were added to cells and incubated for 1 hour. Later IL-12, 10 U/ml was added to cells and incubated for overnight. Supernatant was collected from the wells and IFN-7 secretion was measured by using human IFN-7 ELISA kit. Absorbance was measured at 450 nm in BMG FLUOstar. Background signal obtained from cells which were not activated with cytokines, was subtracted from vehicle controls and compound treated wells.
In general terms: In an ELISA, binding on a coated surface is turned into a signal by an enzyme label.

For test [6], the system named is Imiquimod induced dermatitis in mice. Put plainly: Mouse model of Imiquimod induced psoriasis. The settings on record: 3% topical, QD; IMQ induced psoriasis, mice. The test is classed as in vivo, Female BALB/c mice. The protocol:
Imiquimod (IMQ) induced dermatitis closely resembles human psoriasis lesions not only with regard to phenotypic and histological characteristics but also in the development of the lesions. IMQ is a ligand for toll-like receptor 7 (TLR7) and TLR8, and is a potent immune activator. […] Migration of activated dermal dendritic cells to lymph nodes in skin triggers a sequence of events leading to late phase of psoriasis. Compounds described herein are tested for JAK inhibition driven efficacy in Imiquimod induced dermatitis in mice.
Female BALB/c mice were topically dosed with 3% cream formulation containing test compounds. After four hours of test compound administration, 5% Imiquimod was applied on back skin and right ear for five days. On day 6, post dosing with test compounds, the severity of psoriasis was monitored and graded following Psoriasis Area and Severity Index (PASI). Efficacies of the compounds were evaluated based on PASI score. Redness, thickness and scaling of back skin and ear were assessed among the groups for scoring.

Setting [7] is: HT2, HT-2 cells, IL-2 50 U/ml, pSTAT5 HTRF, read-out: Cell Based Assay (μM) HT-2/IL-2/pSTAT5.
[8] abbreviates: TF-1, TF-1 cells, IL-6 30 ng/ml, pSTAT3 HTRF, read-out: Cell Based Assay (μM) TF-1/IL-6/pSTAT3.
[9] abbreviates: TF-1 cells, GMCSF 5 ng/ml, pSTAT5 HTRF, read-out: Cell Based Assay (μM) TF-1/GMCSF/pSTAT5.

Each structure is given as a SMILES string. Where two headings read alike, the source gives them in different places. Bounds are passed on as bounds.

T1 sequence (P29597 whole entry): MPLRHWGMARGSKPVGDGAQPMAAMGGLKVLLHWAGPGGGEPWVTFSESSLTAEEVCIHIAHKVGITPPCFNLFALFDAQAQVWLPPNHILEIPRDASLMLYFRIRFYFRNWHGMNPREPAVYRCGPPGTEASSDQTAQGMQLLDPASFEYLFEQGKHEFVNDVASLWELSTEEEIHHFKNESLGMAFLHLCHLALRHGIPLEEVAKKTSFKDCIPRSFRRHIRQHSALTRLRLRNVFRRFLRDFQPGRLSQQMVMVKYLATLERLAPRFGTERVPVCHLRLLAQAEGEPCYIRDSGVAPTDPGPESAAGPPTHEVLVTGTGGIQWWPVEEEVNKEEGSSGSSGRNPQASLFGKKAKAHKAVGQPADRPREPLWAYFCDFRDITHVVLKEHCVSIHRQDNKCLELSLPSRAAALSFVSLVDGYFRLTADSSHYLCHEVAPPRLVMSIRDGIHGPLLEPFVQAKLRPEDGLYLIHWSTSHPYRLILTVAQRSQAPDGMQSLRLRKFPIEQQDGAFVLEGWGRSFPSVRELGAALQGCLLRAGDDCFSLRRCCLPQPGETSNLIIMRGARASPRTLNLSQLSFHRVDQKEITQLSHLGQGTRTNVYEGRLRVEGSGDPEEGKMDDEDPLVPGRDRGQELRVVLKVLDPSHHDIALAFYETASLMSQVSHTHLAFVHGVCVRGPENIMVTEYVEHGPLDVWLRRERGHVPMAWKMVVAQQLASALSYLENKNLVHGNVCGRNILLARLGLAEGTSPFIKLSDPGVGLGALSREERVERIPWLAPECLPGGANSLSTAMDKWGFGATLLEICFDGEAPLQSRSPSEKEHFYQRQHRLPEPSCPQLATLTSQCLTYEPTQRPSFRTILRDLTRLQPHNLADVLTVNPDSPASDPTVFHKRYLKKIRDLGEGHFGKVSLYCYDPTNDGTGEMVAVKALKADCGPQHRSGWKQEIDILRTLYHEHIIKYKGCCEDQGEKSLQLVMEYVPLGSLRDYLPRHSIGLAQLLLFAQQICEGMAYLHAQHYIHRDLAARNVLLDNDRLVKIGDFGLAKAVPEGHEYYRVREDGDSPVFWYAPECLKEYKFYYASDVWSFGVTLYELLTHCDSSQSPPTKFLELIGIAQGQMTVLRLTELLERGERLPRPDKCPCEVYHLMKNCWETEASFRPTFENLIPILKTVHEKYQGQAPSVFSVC

Take `COC(c1ccc(-n2cc(-c3ccnc4[nH]cnc34)cn2)nc1)C(F)(F)F` (stereo not drawn) [Example 1119, 7-(1-(5-(2,2,2-trifluoro-1-methoxyethyl)pyridin-2-yl)-1H-pyrazol-4-yl)-3H-imidazo[4,5-b]pyridine]: the IC50 at Recombinant TYK2 was more than 1 µM; in test [1] (setting [7]), more than 1 µM; in test [2], 10 µM; at Recombinant JAK2 it was 0.2 µM; at Recombinant JAK1 it was 0.03 µM; in test [3] (setting [8]), 1.3 µM. Also, the IC50 is 0.07 µM at Recombinant JAK3 and more than 10 µM in test [4] (setting [9]).
As for `N#CCc1ccc(-n2cc(-c3ccnc4[nH]cnc34)cn2)nc1` [Example 1078, 2-(6-(4-(3H-imidazo[4,5-b]pyridin-7-yl)-1H-pyrazol-1-yl)pyridin-3-yl)acetonitrile], the IC50 on Recombinant TYK2 was more than 1 µM; in [1] (setting [7]), more than 1 µM; in test [2], more than 10 µM; at Recombinant JAK2 it was 0.108 µM; on Recombinant JAK1, 0.025 µM; in test [3] (setting [8]) it was 1.05 µM. For the same compound, the IC50 is 0.07 µM at Recombinant JAK3 and more than 10 µM in test [4] (setting [9]).
On to `CC(O)(c1ccc(-n2cc(-c3ccnc4[nH]cnc34)cn2)nc1)C(F)(F)F` (stereo not drawn) [Example 1125, 2-(6-(4-(3H-imidazo[4,5-b]pyridin-7-yl)-1H-pyrazol-1-yl)pyridin-3-yl)-1,1,1-trifluoropropan-2-ol], for which the IC50 on Recombinant TYK2 was 0.15 µM; in [1] (setting [7]) it was 0.26 µM; in test [2] it was more than 10 µM; at Recombinant JAK2 it was 0.023 µM; at Recombinant JAK1, 0.004 µM; in [3] (setting [8]) it was 0.27 µM. The figures for the IC50 (at Recombinant JAK3; in [4] (setting [9])) were 0.009 µM and more than 10 µM, respectively.
Take `CC(C)N1CCC([C@@](O)(c2ccc(-n3cc(-c4ccnc5[nH]cnc45)cn3)nc2)C(F)(F)F)C1` (stereo partly drawn) [Example 1225, (R)-1-(6-(4-(3H-imidazo[4,5-b]pyridin-7-yl)-1H-pyrazol-1-yl)pyridin-3-yl)-2,2,2-trifluoro-1-(1-isopropylpyrrolidin-3-yl)ethanol]: the IC50 was more than 1 µM on Recombinant TYK2; 0.47 µM in test [1] (setting [7]); more than 3 µM in [2]; 0.064 µM at Recombinant JAK2; 0.0025 µM at Recombinant JAK1; 0.16 µM in test [3] (setting [8]). In addition, the IC50 was 0.018 µM at Recombinant JAK3 and more than 1 µM in test [4] (setting [9]).
With `CCN1CCC([C@](O)(c2ccc(-n3cc(-c4ccnc5[nH]cnc45)cn3)nc2)C(F)(F)F)C1` (stereo partly drawn) [Example 1233, (S)-1-(6-(4-(3H-imidazo[4,5-b]pyridin-7-yl)-1H-pyrazol-1-yl)pyridin-3-yl)-1-(1-ethylpyrrolidin-3-yl)-2,2,2-trifluoroethanol], the IC50 on Recombinant TYK2 is less than 0.5 µM; in test [1] (setting [7]) it was more than 0.5 µM; in test [2], more than 3 µM; on Recombinant JAK2 it was less than 0.1 µM; on Recombinant JAK1, less than 0.1 µM; in test [3] (setting [8]), 0.21 µM. The IC50 at Recombinant JAK3 is less than 0.1 µM; in test [4] (setting [9]), more than 1 µM.
Regarding `O=C(Nc1nc2cccc(-c3ccc(CN4CCS(=O)(=O)CC4)cc3)n2n1)C1CC1` [Filgotinib, filgotinib, reference compound], the IC50 in test [1] (HT2, read-out: Cell based IC50 (μM) HT-2/IL-2) is 0.95 µM; in test [5], more than 10 µM; in test [3] (TF-1, read-out: Cell based IC50 (μM) TF-1/IL-6), 0.6 µM; in test [4] (TF-1, read-out: Cell based IC50 (μM) TF-1/GM-CSF) it was 3.4 µM. Moreover, in [6], the back skin thickness result is “significant decrease”. For the same compound, the “cumulative psoriasis score compared to vehicle” value in test [6] is reported as “statistically significant decrease”. The ear thickness entry in test [6] is “significant decrease”.
Take `CCN1CCC([C@@](O)(c2ccc(-n3cc(-c4ccnc5[nH]cnc45)cn3)nc2)C(F)(F)F)C1` (stereo partly drawn) [Example 1232, (R)-1-(6-(4-(3H-imidazo[4,5-b]pyridin-7-yl)-1H-pyrazol-1-yl)pyridin-3-yl)-1-(1-ethylpyrrolidin-3-yl)-2,2,2-trifluoroethanol]: the IC50 on Recombinant TYK2 was 0.2 µM; in test [1] (setting [7]), 0.34 µM; in test [2], more than 3 µM; on Recombinant JAK2, 0.023 µM; at Recombinant JAK1, 0.003 µM; in [3] (setting [8]), 0.09 µM. The IC50 on Recombinant JAK3 is 0.015 µM; in test [4] (setting [9]), more than 1 µM.
On to `OC(c1ccc(-n2cc(-c3ccnc4[nH]cnc34)cn2)nc1)C(F)(F)F` (stereo not drawn) [Example 1169, 1-(6-(4-(3H-imidazo[4,5-b]pyridin-7-yl)-1H-pyrazol-1-yl)pyridin-3-yl)-2,2,2-trifluoroethanol], for which the IC50 on Recombinant TYK2 was more than 1 µM; in [1] (setting [7]), less than 1 µM; in [2], more than 10 µM; at Recombinant JAK2, 0.073 µM; on Recombinant JAK1 it was 0.013 µM; in test [3] (setting [8]) it was 0.45 µM. In addition, the IC50 at Recombinant JAK3 was 0.014 µM; in test [4] (setting [9]) it was more than 10 µM.
`CN1CC(C(O)(c2ccc(-n3cc(-c4ccnc5[nH]cnc45)cn3)nc2)C(F)(F)F)C1` (stereo not drawn) [Example 1231, 1-(6-(4-(3H-imidazo[4,5-b]pyridin-7-yl)-1H-pyrazol-1-yl)pyridin-3-yl)-2,2,2-trifluoro-1-(1-methylazetidin-3-yl)ethanol]: the IC50 was 0.15 µM in test [1] (setting [7]); more than 3 µM in [2]; 0.005 µM at Recombinant JAK2; 0.0003 µM at Recombinant JAK1; 0.05 µM in [3] (setting [8]); 1.5 µM in test [4] (setting [9]).

The values above are taken from patent US12516056B2, “Compounds for inhibition of janus kinase 1” (MANKIND PHARMA LTD., priority 2019, dated 2026).
